A compilation of properties of binary mixtures (doi:10.1021/je300108z)

Test: xn = mol fraction of the nth substance listed
Details: 101 kPa

CCCCCCCCCCCC[N+](CC)(CC)CC.O=S(=O)([N-]S(=O)(=O)C(F)(F)F)C(F)(F)F + O
viscosity (302.95 K, x2 = 0.1238): 97.2 mPa·s | viscosity (308.05 K, x2 = 0.1238): 76.6 mPa·s | viscosity (313.05 K, x2 = 0.1238): 60.7 mPa·s | viscosity (318.05 K, x2 = 0.1238): 48.8 mPa·s | viscosity (322.95 K, x2 = 0.1238): 39.19 mPa·s

CCCCCCCC[N+](CC)(CC)CC.O=S(=O)([N-]S(=O)(=O)C(F)(F)F)C(F)(F)F + O
viscosity (293.25 K, x2 = 0.1442): 107.8 mPa·s | viscosity (298.05 K, x2 = 0.1442): 88.1 mPa·s | viscosity (303.05 K, x2 = 0.1442): 69.8 mPa·s | viscosity (313.05 K, x2 = 0.1442): 45.09 mPa·s

CCCCCC[N+](CC)(CC)CC.O=S(=O)([N-]S(=O)(=O)C(F)(F)F)C(F)(F)F + O
viscosity (298.05 K, x2 = 0.1618): 66.7 mPa·s | viscosity (303.05 K, x2 = 0.1618): 54 mPa·s | viscosity (313.05 K, x2 = 0.1618): 36.49 mPa·s | viscosity (318.05 K, x2 = 0.1618): 30.73 mPa·s | viscosity (322.95 K, x2 = 0.1618): 25.98 mPa·s
